Test results published in ChEMBL document CHEMBL1138396, “Constrained azacyclic analogues of the immunomodulatory agent FTY720 as molecular probes for sphingosine 1-phosphate receptors” (Bioorg Med Chem Lett, 2007).

What was measured:
[1] = target: Sphingosine 1-phosphate receptor 5 (Homo sapiens, UniProt Q9H228); assay: Activity at human recombinant S1P5 receptor expressed in CHO cells assessed as increase in calcium release by FLIPR assay; type: functional, cell-based
[2] = target: Sphingosine 1-phosphate receptor 1 (Homo sapiens, UniProt P21453); assay: Activity at human recombinant S1P1 receptor expressed in CHO cells assessed as increase in calcium release by FLIPR assay; type: functional, cell-based
[3] = target: Sphingosine 1-phosphate receptor 3 (Homo sapiens, UniProt Q99500); assay: Activity at human recombinant S1P3 receptor expressed in CHO cells assessed as increase in calcium release by FLIPR assay; type: functional, cell-based
[4] = target: T1, Sphingosine 1-phosphate receptor 4 (Homo sapiens, UniProt O95977); assay: Activity at human recombinant S1P4 receptor expressed in CHO cells assessed as increase in calcium release by FLIPR assay; type: functional, cell-based
T1 sequence (O95977 whole entry): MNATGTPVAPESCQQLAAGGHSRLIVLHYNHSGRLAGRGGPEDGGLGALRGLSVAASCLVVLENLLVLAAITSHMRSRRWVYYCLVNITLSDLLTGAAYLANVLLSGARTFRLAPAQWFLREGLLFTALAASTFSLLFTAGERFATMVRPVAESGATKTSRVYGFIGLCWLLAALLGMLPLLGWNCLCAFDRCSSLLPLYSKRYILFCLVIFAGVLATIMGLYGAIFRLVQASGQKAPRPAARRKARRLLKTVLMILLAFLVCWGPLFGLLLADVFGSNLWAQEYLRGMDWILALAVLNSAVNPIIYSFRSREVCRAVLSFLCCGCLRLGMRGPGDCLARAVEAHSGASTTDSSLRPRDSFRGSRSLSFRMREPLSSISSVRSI

[5] = target: T2, Sphingosine kinase 2 (Homo sapiens) (UniProt Q9NRA0); assay: Effect on rate of phosphorylation of human recombinant SPHK2 expressed in HEK293 cells; type: cell-based
T2 sequence (whole entry): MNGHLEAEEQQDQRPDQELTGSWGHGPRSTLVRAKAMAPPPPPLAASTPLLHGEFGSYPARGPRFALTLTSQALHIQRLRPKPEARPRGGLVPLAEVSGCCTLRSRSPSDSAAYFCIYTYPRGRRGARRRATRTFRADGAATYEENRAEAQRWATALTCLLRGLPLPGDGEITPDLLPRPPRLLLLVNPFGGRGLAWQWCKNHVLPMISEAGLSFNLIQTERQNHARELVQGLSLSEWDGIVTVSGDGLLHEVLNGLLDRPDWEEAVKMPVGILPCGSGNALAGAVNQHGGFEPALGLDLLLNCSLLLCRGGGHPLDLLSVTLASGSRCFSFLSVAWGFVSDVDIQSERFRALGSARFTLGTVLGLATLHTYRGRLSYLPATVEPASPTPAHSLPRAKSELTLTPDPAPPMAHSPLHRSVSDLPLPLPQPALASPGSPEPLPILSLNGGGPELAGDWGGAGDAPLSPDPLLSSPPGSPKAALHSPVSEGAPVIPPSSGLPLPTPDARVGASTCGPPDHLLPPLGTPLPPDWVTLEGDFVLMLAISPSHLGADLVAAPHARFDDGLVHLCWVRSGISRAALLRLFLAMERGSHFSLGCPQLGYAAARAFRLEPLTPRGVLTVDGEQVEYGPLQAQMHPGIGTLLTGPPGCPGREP

Sequence of Sphingosine 1-phosphate receptor 1 (P21453 whole entry): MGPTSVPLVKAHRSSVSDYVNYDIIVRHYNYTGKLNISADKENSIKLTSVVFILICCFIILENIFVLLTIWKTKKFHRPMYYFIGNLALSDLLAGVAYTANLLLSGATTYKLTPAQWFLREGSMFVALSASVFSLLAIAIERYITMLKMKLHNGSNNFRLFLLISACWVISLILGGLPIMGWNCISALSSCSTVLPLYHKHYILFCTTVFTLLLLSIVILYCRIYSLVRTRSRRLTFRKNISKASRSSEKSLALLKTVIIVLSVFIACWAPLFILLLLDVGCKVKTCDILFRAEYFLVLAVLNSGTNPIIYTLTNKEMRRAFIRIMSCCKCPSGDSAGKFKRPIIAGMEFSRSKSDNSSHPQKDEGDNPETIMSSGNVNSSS
Sequence of Sphingosine 1-phosphate receptor 3 (Q99500 whole entry): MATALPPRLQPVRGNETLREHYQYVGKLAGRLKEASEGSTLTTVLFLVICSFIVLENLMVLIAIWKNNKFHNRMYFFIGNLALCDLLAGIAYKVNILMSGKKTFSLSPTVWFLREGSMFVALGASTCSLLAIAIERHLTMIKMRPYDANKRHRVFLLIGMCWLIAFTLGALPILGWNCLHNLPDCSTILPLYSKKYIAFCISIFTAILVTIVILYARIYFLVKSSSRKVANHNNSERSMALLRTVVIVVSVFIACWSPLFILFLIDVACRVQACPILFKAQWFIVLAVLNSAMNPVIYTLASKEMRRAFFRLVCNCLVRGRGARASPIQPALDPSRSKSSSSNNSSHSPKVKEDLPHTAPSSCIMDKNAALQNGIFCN
Sequence of Sphingosine 1-phosphate receptor 5 (Q9H228 whole entry): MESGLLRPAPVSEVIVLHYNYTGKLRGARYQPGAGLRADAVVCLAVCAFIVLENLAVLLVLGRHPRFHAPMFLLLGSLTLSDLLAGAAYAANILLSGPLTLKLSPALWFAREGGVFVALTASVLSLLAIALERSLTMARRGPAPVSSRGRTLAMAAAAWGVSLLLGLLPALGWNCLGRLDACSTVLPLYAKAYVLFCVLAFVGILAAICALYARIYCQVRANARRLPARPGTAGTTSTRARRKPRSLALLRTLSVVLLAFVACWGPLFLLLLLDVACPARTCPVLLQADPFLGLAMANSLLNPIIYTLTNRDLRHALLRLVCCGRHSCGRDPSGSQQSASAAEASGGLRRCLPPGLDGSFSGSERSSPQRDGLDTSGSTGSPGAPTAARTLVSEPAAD

EC50 [1] [µM] | EC50 [2] [µM] | EC50 [3] [µM] | EC50 [4] [µM] | Activity [5] [%] | Compound
 |  |  | 0.0186 |  | CCCCCCCCc1ccc(CC[C@@](N)(CO)COP(=O)(O)O)cc1
 |  |  |  | 100 | CCCCCCCCCCCCC/C=C/[C@@H](O)[C@@H](N)CO
 |  |  |  | 13 | CCCCCCCCc1ccc(CCC(N)(CO)CO)cc1
 |  |  |  | 55 | CCCCCCCCc1ccc([C@H]2C[C@H](CO)N[C@@H]2CO)cc1

Further lines, the compound ahead of its results:

Compound | EC50 [1] [µM] | EC50 [2] [µM] | EC50 [3] [µM] | EC50 [4] [µM] | Activity [5] [%]
CCCCCCCCc1ccc([C@H]2C[C@H](CO)N[C@@H]2COP(=O)(O)O)cc1 | 0.134 | > 1 | > 1 | 0.347 | 
CCCCCCCCc1ccc([C@@H]2C[C@@H](CO)N[C@H]2CO)cc1 |  |  |  |  | < 0.1
CCCCCCCCc1ccc([C@@H]2C[C@@H](CO)N[C@H]2COP(=O)(O)O)cc1 | 0.0213 | > 1 | > 1 | 0.0331 | 
CCCCCCCCc1ccc([C@@H]2C[C@@H](COP(=O)(O)O)N[C@H]2CO)cc1 | 0.0058 | > 1 | > 1 | 0.0168 | 
CCCCCCCCCCCCC/C=C/[C@@H](O)[C@@H](N)COP(=O)(O)O |  | 0.00055 | 0.0016 | 0.0079 | 
CCCCCCCCc1ccc([C@H]2C[C@H](COP(=O)(O)O)N[C@@H]2CO)cc1 | 0.0102 | > 1 | > 1 | 0.0074 | 
